From patent publication US12544396B2, “Compositions and methods for treating metabolic disease” (VOGENX, priority 2019, dated 2026)

Legend:
[1] = Oral glucose tolerance test (OGTT) in normal rats: plasma glucose and plasma insulin; type: in vivo; settings: for Plasma glucose 0 hr / Plasma insulin 0 hr / Plasma glucose 0.25 hr / Plasma insulin 0.25 hr / Plasma glucose 0.5 hr / Plasma insulin 0.5 hr / Plasma glucose 1 hr / Plasma insulin 1 hr / Plasma glucose 2 hr / Plasma insulin 2 hr / Plasma glucose 4 hr / Plasma insulin 4 hr / Plasma glucose ΔAUC 0-1 hr / Plasma insulin ΔAUC 0-1 hr: oral, KGT-1681 3 mg/kg, KGA-3235 0.03 mg/kg, Combo 3 and 0.03 mg/kg; for Effect on increase in plasma glucose after glucose loading: FIG. 1A; for Two-way ANOVA main effect in AUC0-1hr for plasma glucose: FIG. 1B; for Effect on plasma insulin: FIG. 2A
Experimental: Example 1. Combination treatment with mizagliflozin and remogliflozin. Combination treatment with KGT-1681 and KGA-3235 in normal rats. KGT-1681 was suspended in 0.1% methylcellulose (MC) and KGA-3235 was dissolved in distilled water (DW). Rats (9 weeks of age) were divided into the following four groups and treated as indicated: vehicle, 0.1% MC+DW; KGT, KGT-1681 (3 mg/kg, 5 mL/kg) plus DW; KGA, 0.1% MC plus KGA-3235 (0.03 mg/kg, 5 mL/kg); and Combo, KGT-1681 plus KGA-3235 (3 and 0.03 mg/kg, respectively). After 16 h fasting, the drug and glucose solution (400 g/L, 5 ml/kg) were orally administered to rats. Blood was obtained in heparinized and aprotinin-treated tubes from a tail vein at each sampling point. Plasma glucose concentration was determined using a Glucose CII-test Wako (Wako Pure Chemicals, Osaka, Japan). Plasma insulin was determined using an enzyme-linked immunosorbent assay kit (Morinaga Institute of Biological Science, Inc., Yokohama, Japan). The area under the curve (AUC)0-1 hr for plasma glucose and insulin were calculated from the plasma glucose and insulin concentrations during the OGTT (Table 1).

[2] = pre-treatment before mixed meal, cited from earlier work
[3] = orally administered to rat, in comparison with no compound; cited from earlier work

| SMILES | Plasma glucose 0 hr [1] | Plasma insulin 0 hr [1] | Plasma glucose 0.25 hr [1] | Plasma insulin 0.25 hr [1] | Plasma glucose 0.5 hr [1] | Plasma insulin 0.5 hr [1] | Plasma glucose 1 hr [1] | Plasma insulin 1 hr [1] | Plasma glucose 2 hr [1] | Plasma insulin 2 hr [1] | Plasma glucose 4 hr [1] | Plasma insulin 4 hr [1] | Effect on increase in plasma glucose after glucose loading [1] | Two-way ANOVA main effect in AUC0-1hr for plasma glucose [1] | Effect on plasma insulin [1] | Plasma glucose ΔAUC 0-1 hr [1] | Plasma insulin ΔAUC 0-1 hr [1] | further results |
| --- | --- | --- | --- | --- | --- | --- | --- | --- | --- | --- | --- | --- | --- | --- | --- | --- | --- | --- |
| Cc1cc(OCCCNCC(C)(C)C(N)=O)ccc1Cc1c(O[C@@H]2O[C@H](CO)[C@@H](O)[C@H](O)[C@H]2O)n[nH]c1C(C)C [KGA-3235, 3-(3-{4-[3-(β-D-glucopyranosyloxy)-5-isopropyl-1H-pyrazol-4-ylmethyl-]-3-methylphenoxy}propylamino)-2,2-dimethylpropionamide] | 92 ± 4 mg/dL | 278 ± 25 pg/mL | 147 ± 7 mg/dL | 1197 ± 146 pg/mL | 164 ± 5 mg/dL | 1014 ± 131 pg/mL | 169 ± 5 mg/dL | 933 ± 111 pg/mL | 136 ± 2 mg/dL | 551 ± 98 pg/mL | 80 ± 3 mg/dL | 286 ± 39 pg/mL | inhibited the increase in plasm glucose | significant main effect | decreased | 152 ± 4 mg·h/dL | 948 ± 88 pg·h/mL |  |
| OC[C@H]1O[C@@H](c2ccc(Cl)c(Cc3ccc(O[C@H]4CCOC4)cc3)c2)[C@H](O)[C@@H](O)[C@@H]1O [empagliflozin] |  |  |  |  |  |  |  |  |  |  |  |  |  |  |  |  |  | Severity of hypoglycemic events ([2]; versus placebo, p=0.037): significantly reduced; Nadir glucose values [2]: significantly increased; Events requiring rescue glucose administration ([2]; placebo 7 of 12 patients): two |
| CCOC(=O)OC[C@H]1O[C@@H](Oc2ccccc2Cc2ccc(OC)cc2)[C@H](O)[C@@H](O)[C@@H]1O [2-(4-methoxybenzyl)phenyl 6-O-ethoxycarbonyl-β-D-glucopyranoside] |  |  |  |  |  |  |  |  |  |  |  |  |  |  |  |  |  | Increase of lipid accumulative amount in rat liver [3]: inhibited significantly |
| CCOC(=O)OC[C@H]1O[C@@H](Oc2nn(C(C)C)c(C)c2Cc2ccc(OC(C)C)cc2)[C@H](O)[C@@H](O)[C@@H]1O [KGT-1681, 5-methyl-4-[4-(1-methylethoxy)benzyl]-1-(1-methylethyl)-1H-pyrazol-3-yl 6-O-(ethoxycarbonyl)-β-D glucopyranoside] | 101 ± 3 mg/dL | 380 ± 29 pg/mL | 146 ± 5 mg/dL | 1219 ± 183 pg/mL | 163 ± 7 mg/dL | 978 ± 182 pg/mL | 168 ± 6 mg/dL | 1187 ± 152 pg/mL | 113 ± 5 mg/dL | 425 ± 40 pg/mL | 85 ± 2 mg/dL | 338 ± 92 pg/mL | inhibited the increase in plasm glucose | significant main effect | decreased | 152 ± 5 mg·h/dL | 1020 ± 148 pg·h/mL |  |
